{"source": "patent US12171833B2", "about": "“Mucoadhesive polymeric drug delivery compositions and methods” (The University of British Columbia, priority 2020, dated 2024)", "key": {"[1]": {"conditions": "30 min IV infusion, cited from earlier work"}, "[2]": {"test": "In vitro drug release from formulation A (dialysis mini chamber, PBS, 37° C.)", "format": "physicochemical", "conditions": "100 mg, PBS pH 7.4, 37° C., up to 30 hours", "protocol": "Formulation A of PLGA 5%, HA 3%, PEG 92% was made up as described in TABLE 8. […] For the protein study the mini chamber was not closed but a small retaining sponge applied. The chamber was placed in 5 mL of PBS (pH 7.4 or PBS containing albumin to increase the solubility of docetaxel) and placed in an incubator at 37° C."}}, "data": [{"smiles": "Nc1ccn([C@@H]2O[C@H](CO)[C@@H](O)C2(F)F)c(=O)n1", "note": "[gemcitabine]", "values": [{"measurement": "AUC0-inf", "setting": "[1]; 1250 mg/m^2 (32.1 mg/kg), literature", "result": 12500, "unit": "ng·h/mL"}, {"measurement": "kel", "setting": "[1]; 1250 mg/m^2, literature", "result": 3.18, "unit": "h⁻¹"}, {"measurement": "t1/2 (terminal)", "setting": "[1]; 1250 mg/m^2, literature", "result": 13.8, "unit": "min"}, {"measurement": "drug release from paste", "setting": "[2]", "result": "faster than the other two agents"}]}]}
